Structures can show the parent of a compound that is named as a salt.
Assays:
human GIPR = target: T1, human GIPR (Homo sapiens, UniProt P48546); experiment: Human GIP Receptor Potentiator Assay (cAMP formation, HTRF, in presence of EC20 dose of GIP(1-42)); format: cell-based; settings: HEK293 GIPR cell line intracellular cAMP response, with 25 pM GIP(1-42); for Emax: percent top of maximal response; for EC50: relative EC50, read-out: EC50 (nM) and SEM (n)
T1 construct: expressed in transfected cells; host or cells: HEK293 clonal cell line
T1 sequence (P48546 22-466): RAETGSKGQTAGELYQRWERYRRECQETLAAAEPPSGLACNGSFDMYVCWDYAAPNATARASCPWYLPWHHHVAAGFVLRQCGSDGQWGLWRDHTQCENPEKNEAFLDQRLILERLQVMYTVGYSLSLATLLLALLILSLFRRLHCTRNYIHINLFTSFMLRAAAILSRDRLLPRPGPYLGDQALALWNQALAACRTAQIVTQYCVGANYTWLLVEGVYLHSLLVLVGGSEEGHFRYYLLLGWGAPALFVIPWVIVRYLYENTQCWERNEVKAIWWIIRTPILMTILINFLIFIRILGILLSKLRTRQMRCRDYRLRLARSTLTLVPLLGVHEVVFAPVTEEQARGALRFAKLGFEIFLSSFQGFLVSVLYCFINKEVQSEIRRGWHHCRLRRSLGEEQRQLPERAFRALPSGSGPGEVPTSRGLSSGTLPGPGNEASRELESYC
Description: Human GIP Receptor Potentiator Assay
GIP Receptor (GIPR) functional activity is determined using cAMP formation in an HEK293 clonal cell line expressing human GIPR (NCBI accession number NP_000155). […] The hGIPR receptor expressing cells are treated with 25 pM of GIP(1-42) (Labcyte Echo direct dilution) and a dose response of test compound (10 point concentration-response curve in DMSO, 3-fold Labcyte Echo direct dilution, 384 well plate Corning Cat #3570) in DMEM (Gibco Cat #31053) supplemented with 1× GlutaMAX™ (Gibco Cat #35050), 0.1% bovine casein (Sigma C4765-10ML), 250 μM IBMX (3-Isobutyl-1-methylxanthine, Acros Cat #228420010) and 20 mM HEPES (Gibco Cat #15630) in a 20 μL assay volume (final DMSO concentration is 1.0%). After a 30 min incubation at 37° C., the resulting increase in intracellular cAMP is quantitatively determined using the CisBio cAMP Dynamic 2 HTRF Assay Kit (62AM4PEJ). Briefly, cAMP levels within the cell are detected by adding the cAMP-d2 conjugate in cell lysis buffer (10 μL) followed by the antibody anti-cAMP-Eu^3+-Cryptate, also in cell lysis buffer (10 μL). The resulting competitive assay is incubated for at least 60 min at room temperature, then detected using a PerkinElmer Envision® instrument with excitation at 320 nm and emission at 665 nm and 620 nm. Envision units (emission at 665 nm/620 nm*10,000) are inversely proportional to the amount of cAMP present and are converted to nM cAMP per well using a cAMP standard curve. The amount of cAMP generated (nM) in each well is converted to a percent of the maximal response observed. A relative EC50 value and percent top (Emax) are derived by non-linear regression analysis using the percent maximal response vs. the concentration of compound added, fitted to a four-parameter logistic equation. The EC50 and Emax data when the compounds of Examples 1 and 3 are tested in the cAMP assay described above are shown in Table 1.

human GLP-1R = target: T2, human GLP-1R (Homo sapiens, UniProt P43220); experiment: Human GLP-1 Receptor Potentiator Assay (cAMP formation, HTRF, in presence of EC20 dose of oxyntomodulin); format: cell-based; settings: HEK293 GLP-1R cell line intracellular cAMP response, with 5 nM oxyntomodulin
T2 construct: expressed in transfected cells; host or cells: HEK293 clonal cell line
Description: Human GLP-1 Receptor Potentiator Assay
GLP-1 Receptor (GLP-1R) functional activity is determined using cAMP formation in an HEK293 clonal cell line expressing human GLP-1R (NCBI accession number NP_002053). […] After 60 min incubation at room temperature, the resulting increase in intracellular cAMP is quantitatively determined using a custom CisBio cAMP Hybrid HTRF Assay Kit (60MISZZZ). Briefly, cAMP levels within the cell are detected by adding the Dynamic 2 cAMP-d2 conjugate in cell lysis buffer (10 μL) followed by the HiRange antibody anti-cAMP-Eu^3+-Cryptate, also in cell lysis buffer ([…]). The resulting competitive assay is incubated for at least 60 min at RT, then detected using a PerkinElmer Envision® instrument with excitation at 320 nm and emission at 665 nm and 620 nm. […]

T2 sequence (P43220 24-463): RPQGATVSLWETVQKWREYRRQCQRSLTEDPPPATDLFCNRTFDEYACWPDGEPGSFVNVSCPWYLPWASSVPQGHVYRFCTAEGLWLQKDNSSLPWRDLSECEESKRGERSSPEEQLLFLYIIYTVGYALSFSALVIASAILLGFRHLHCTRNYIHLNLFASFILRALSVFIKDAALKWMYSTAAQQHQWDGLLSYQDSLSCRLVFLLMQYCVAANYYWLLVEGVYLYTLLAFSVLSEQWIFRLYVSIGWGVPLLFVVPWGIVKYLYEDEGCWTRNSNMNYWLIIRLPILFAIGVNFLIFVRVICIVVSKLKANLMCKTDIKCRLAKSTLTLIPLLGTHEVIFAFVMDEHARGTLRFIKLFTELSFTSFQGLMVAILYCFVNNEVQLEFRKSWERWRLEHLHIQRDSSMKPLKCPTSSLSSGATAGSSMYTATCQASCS

SMILES | Emax (human GIPR) [%] | EC50 (human GIPR) [nM] | Emax (human GLP-1R; percent top of maximal response) [%] | EC50 (human GLP-1R; relative EC50, read-out: EC50 (nM) and SEM (n)) [nM]
COc1ccc2c(c1-c1cc(F)c(O)c(NCC(C)C)c1)CCN(C(C)c1ccc(C(C)C)cc1)[C@@H]2C (single isomer, unassigned) [Example 1, dihydrochloride] | 101 ± 7 | 11.9 |  | 
COCC1Cc2c(ccc(OC)c2-c2ccc(O)c(C)c2)CN1Cc1ccc(C(C)C)cc1O (single isomer, unassigned) [Example 2, 4-[2-[(2-Hydroxy-4-isopropyl-phenyl)methyl]-6-methoxy-3-(methoxymethyl)-3,4-dihydro-1H-isoquinolin-5-yl]-2-methyl-phenol; hydrochloride] |  |  | 181 ± 35 | 15.7
COc1ccc2c(c1-c1cc(C)c(O)c(F)c1)CCN(C(C)c1ccc(C(C)C)cc1)[C@@H]2C (single isomer, unassigned) [Example 3, hydrochloride] | 91 ± 8 | 37.5 |  | 
